This test concerns the target recombinant human DHODH (Homo sapiens, UniProt Q02127). Put plainly: Endpoint DHODH enzyme assay (coenzyme Q10, DCIP). It counts as biochemical. Further details: purchased Prospecbio ENZ-642. As to conditions: compound at 10 µM. The protocol:
In Supplementary Tables 5 and 6, endpoint assays were performed with 10 nM recombinant human DHODH (#ENZ-642, Prospecbio). The reaction mixture consisted of 624.6 µM DL-dihydroorotic acid, 66.4 µM coenzyme Q10, 66.4 µM 2,6-dichlorophenolindophenol sodium salt (DCIP) (all reagents purchased from Sigma-Aldrich) in enzyme buffer (50 mM Tris-HCl, pH 8.0, 0.1% Triton X-100, 150 mM KCl). Loss in absorbance by DCIP was measured at 595 nm after incubation at RT for 60 min.

[1] abbreviates: Supplementary Table 6, 30,000 compound library.
[2] abbreviates: Supplementary Table 5, 20,000 compound library.

Molecules are shown by their SMILES. Counter-ions that a name gives are not always drawn.

The values below come from publication PMC5856786, “A DHODH inhibitor increases p53 synthesis and enhances tumor cell killing by p53 degradation blockage” (Nature Communications, 2018).

recombinant human DHODH, sequence (Q02127 31-395 limits assumed): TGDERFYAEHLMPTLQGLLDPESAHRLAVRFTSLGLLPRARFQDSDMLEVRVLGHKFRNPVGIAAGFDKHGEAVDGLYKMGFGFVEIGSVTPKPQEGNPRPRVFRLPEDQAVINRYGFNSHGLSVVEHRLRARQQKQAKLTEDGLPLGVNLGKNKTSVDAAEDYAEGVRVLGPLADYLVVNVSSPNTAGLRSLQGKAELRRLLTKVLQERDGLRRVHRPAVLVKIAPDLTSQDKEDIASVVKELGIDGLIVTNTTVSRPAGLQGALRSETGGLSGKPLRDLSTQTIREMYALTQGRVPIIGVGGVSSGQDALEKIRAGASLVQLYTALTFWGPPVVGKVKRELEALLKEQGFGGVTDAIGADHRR

Consider `O=[N+]([O-])c1ccc2[nH]c3c(c2c1)CCCC3NC1CCN(CCc2ccccc2)CC1` (stereo not drawn) [compound 5781441, 6-nitro-N-[1-(2-phenylethyl)-4-piperidinyl]-2,3,4,9-tetrahydro-1H-carbazol-1-amine], for which the remaining activity at 10 µM under setting [1] was found to be 59.6%.
On the same count and under the same terms, under `COc1ccc(CC(C)NC2CCCc3c2[nH]c2ccc([N+](=O)[O-])cc32)cc1OC` (stereo not drawn) [compound 5781442, N-[2-(3,4-dimethoxyphenyl)-1-methylethyl]-6-nitro-2,3,4,9-tetrahydro-1H-carbazol-1-amine] stands 78.3%; under `O=[N+]([O-])c1ccc2[nH]c3c(c2c1)CCCC3NC1Cc2ccccc2C1` (stereo not drawn) [compound 5781444, N-(2,3-dihydro-1H-inden-2-yl)-6-nitro-2,3,4,9-tetrahydro-1H-carbazol-1-amine], 57.9%; under `CC1CCC(NC2CCCc3c2[nH]c2ccc([N+](=O)[O-])cc32)C1` (stereo not drawn) [compound 5781446, N-(3-methylcyclopentyl)-6-nitro-2,3,4,9-tetrahydro-1H-carbazol-1-amine], 60.5%.
On to `CC1CCC(NC2CCCc3c2[nH]c2ccc([N+](=O)[O-])cc32)CC1` (stereo not drawn) [compound 5781447, N-(4-methylcyclohexyl)-6-nitro-2,3,4,9-tetrahydro-1H-carbazol-1-amine], for which the remaining activity at 10 µM under setting [1] was determined as 56.8%.
As to `COc1ccccc1CC(C)NC1CCCc2c1[nH]c1ccc([N+](=O)[O-])cc21` (stereo not drawn) [compound 5781453, N-[2-(2-methoxyphenyl)-1-methylethyl]-6-nitro-2,3,4,9-tetrahydro-1H-carbazol-1-amine], under setting [1], the remaining activity at 10 µM was determined as 52.4%.
As for `CC(Cc1ccccc1F)NC1CCCc2c1[nH]c1ccc([N+](=O)[O-])cc21` (stereo not drawn) [compound 5781454, N-[2-(2-fluorophenyl)-1-methylethyl]-6-nitro-2,3,4,9-tetrahydro-1H-carbazol-1-amine], the remaining activity at 10 µM under setting [1] came to 55.4%.
The same measure, in the same setting: the same measure for `CC(C)NC1CCCc2c1[nH]c1ccc([N+](=O)[O-])cc21` (stereo not drawn) [compound 5781470, N-isopropyl-6-nitro-2,3,4,9-tetrahydro-1H-carbazol-1-amine]: 90.2%.
`COc1ccc(C=NN2CCN(Cc3ccccc3)CC2)c(OC)c1` [compound 5783994, 4-benzyl-N-(2,4-dimethoxybenzylidene)-1-piperazinamine]: under setting [1], the remaining activity at 10 µM turned out to be 101%.
Same read-out and setting: the same measure for `Cc1cccc(Cc2cnc(NC(=O)c3ccc(Br)cc3)s2)c1` [compound 5852371, 4-bromo-N-[5-(3-methylbenzyl)-1,3-thiazol-2-yl]benzamide]: 97.6%; for `COc1ccccc1NC(=O)C1c2ccccc2Oc2ccccc21` [compound 5867214, N-(2-methoxyphenyl)-9H-xanthene-9-carboxamide]: 99.2%.
As for `Cc1ccc2[nH]c3c(c2c1)CCCC3NCc1ccccc1` (stereo not drawn) [compound 5869604, N-benzyl-6-methyl-2,3,4,9-tetrahydro-1H-carbazol-1-amine hydrochloride], the remaining activity at 10 µM under setting [1] is 27.3%.
As to `COc1ccc(Cl)cc1NC1=C(Cl)C(=O)N(c2cccc(C)c2C)C1=O` [compound 6149306, 3-chloro-4-[(5-chloro-2-methoxyphenyl)amino]-1-(2,3-dimethylphenyl)-1H-pyrrole-2,5-dione], the remaining activity at 10 µM under setting [1] was 99.6%.
Take `CC(C)Oc1ccc(C(=O)NC(=S)Nc2ccc(N3CCCCC3)cc2)cc1` [compound 6497060, 4-isopropoxy-N-({[4-(1-piperidinyl)phenyl]amino}carbonothioyl)benzamide]: under setting [1], the remaining activity at 10 µM is 101%.
Consider `CCOc1ccc(NC(=S)NC(=O)c2ccc(C(C)(C)C)cc2)cc1` [compound 6501326, 4-tert-butyl-N-{[(4-ethoxyphenyl)amino]carbonothioyl}benzamide], for which, under setting [1], the remaining activity at 10 µM is 84.1%.
With `COc1ccc(NC(=S)NC(=O)c2ccc(C(C)(C)C)cc2)c(OC)c1` [compound 6513572, 4-tert-butyl-N-{[(2,4-dimethoxyphenyl)amino]carbonothioyl}benzamide], the remaining activity at 10 µM under setting [1] came to 97.8%.
Take `CC(C)(C)c1ccc(C(=O)NC(=S)Nc2cccc([N+](=O)[O-])c2)cc1` [compound 6515740, 4-tert-butyl-N-{[(3-nitrophenyl)amino]carbonothioyl}benzamide]: the remaining activity at 10 µM under setting [1] is 88.9%.
For the molecule `CC(C)(C)c1ccc(C(=O)NC(=S)Nc2cccc(NC(=O)c3ccccc3)c2)cc1` [compound 6519439, N-({[3-(benzoylamino)phenyl]amino}carbonothioyl)-4-tert-butylbenzamide], under setting [1], the remaining activity at 10 µM is 63.2%.
For `Cc1ccccc1NC(=S)NC(=O)c1cccc2c(Br)cccc12` [compound 6592864, 5-bromo-N-{[(2-methylphenyl)amino]carbonothioyl}-1-naphthamide], the remaining activity at 10 µM under setting [2] was 72.2%.
On to `Cc1cc(O)c(NC(=S)NC(=O)c2ccc(C(C)(C)C)cc2)cc1C` [compound 6611243, 4-tert-butyl-N-{[(2-hydroxy-4,5-dimethylphenyl)amino]carbonothioyl}benzamide], for which the remaining activity at 10 µM under setting [1] came out at 51%.
On to `O=c1oc2ccccc2cc1-c1cn2cc(Cl)ccc2n1` [compound 6623100, 3-(6-chloroimidazo[1,2-a]pyridin-2-yl)-2H-chromen-2-one], for which the remaining activity at 10 µM under setting [2] came out at 96.3%.
Regarding `COc1cc(C=C2N=C(SC)SC2=O)cc(Br)c1OCc1ccccc1` [compound 6638116, 4-[4-(benzyloxy)-3-bromo-5-methoxybenzylidene]-2-(methylthio)-1,3-thiazol-5(4H)-one], the remaining activity at 10 µM under setting [1] came to 78.8%.
On the same count and under the same terms, the same measure for `CSC1=NC(=Cc2ccc(OCc3ccccc3)cc2)C(=O)S1` [compound 6638197, 4-[4-(benzyloxy)benzylidene]-2-(methylthio)-1,3-thiazol-5(4H)-one]: 74.9%; for `c1ccc(OCCNc2ccc3ccccc3c2)cc1` [compound 6641022, 2-naphthyl(2-phenoxyethyl)amine]: 66%.
For the molecule `COc1ccc(OC)c(C(C)NC(=O)c2ccco2)c1` (stereo not drawn) [compound 6912406, N-[1-(2,5-dimethoxyphenyl)ethyl]-2-furamide], the remaining activity at 10 µM under setting [2] amounted to 93.2%.
`COc1cc(CNc2ccc(C)c(Cl)c2)cc(Cl)c1OC` [compound 7574753, (3-chloro-4,5-dimethoxybenzyl)(3-chloro-4-methylphenyl)amine]: the remaining activity at 10 µM under setting [2] stood at 79.9%.
In the case of `CCN(CC)c1ccc(NC(=S)NC(=O)c2cccc(C)c2OC)cc1` [compound 7578012, N-({[4-(diethylamino)phenyl]amino}carbonothioyl)-2-methoxy-3-methylbenzamide], under setting [2], the remaining activity at 10 µM was 79%.
On to `CCOc1cccc2c(C)nc(Nc3nc(=O)c4c([nH]3)CCCC4)nc12` [compound 7587351, 2-[(8-ethoxy-4-methyl-2-quinazolinyl)amino]-5,6,7,8-tetrahydro-4(1H)-quinazolinone], for which the remaining activity at 10 µM under setting [2] stood at 92.7%.
On to `O=S(=O)(CCSc1nc2ccccc2o1)c1nc2ccccc2s1` [compound 7617239, 2-{[2-(1,3-benzothiazol-2-ylsulfonyl)ethyl]thio}-1,3-benzoxazole], for which the remaining activity at 10 µM under setting [2] was found to be 103%.
Regarding `CCc1cccc(C)c1NC(=O)CSc1nc2ccccc2c(=O)n1-c1cccc2ccccc12` [compound 7638934, N-(2-ethyl-6-methylphenyl)-2-{[3-(1-naphthyl)-4-oxo-3,4-dihydro-2-quinazolinyl]thio}acetamide], the “remaining DHODH activity (%) Average” value under setting [2] amounted to 72.65%.

A word on the remaining activity: it is the signal under treatment as a percentage of the control signal.
